The source of these data is US11717508B2, “Compounds, compositions, and methods for inhibiting bacterial growth” (priority 2016, dated 2023).

Read-outs that look alike come from different tables or passages of the source.

One experiment has as its target DosT (Mycobacterium tuberculosis, UniProt P9WGK1). The format is biochemical.
Another experiment relates to Mtb Erdman. The experiment can be described thus: microbe, parasite or virus in culture. The note with it: Mycobacterium tuberculosis, 240 h, read-out: reduction of Mtb viability in the presence of 5 μM INH relative to cultures not treated with INH.
The test system of another experiment is Mtb CDC1551. The experiment can be described thus: microbe, parasite or virus in culture. The note with it: Mycobacterium tuberculosis, CDC1551, read-out: reduction of viability relative to DMSO treated control.

Chain of DosT (P9WGK1 whole entry): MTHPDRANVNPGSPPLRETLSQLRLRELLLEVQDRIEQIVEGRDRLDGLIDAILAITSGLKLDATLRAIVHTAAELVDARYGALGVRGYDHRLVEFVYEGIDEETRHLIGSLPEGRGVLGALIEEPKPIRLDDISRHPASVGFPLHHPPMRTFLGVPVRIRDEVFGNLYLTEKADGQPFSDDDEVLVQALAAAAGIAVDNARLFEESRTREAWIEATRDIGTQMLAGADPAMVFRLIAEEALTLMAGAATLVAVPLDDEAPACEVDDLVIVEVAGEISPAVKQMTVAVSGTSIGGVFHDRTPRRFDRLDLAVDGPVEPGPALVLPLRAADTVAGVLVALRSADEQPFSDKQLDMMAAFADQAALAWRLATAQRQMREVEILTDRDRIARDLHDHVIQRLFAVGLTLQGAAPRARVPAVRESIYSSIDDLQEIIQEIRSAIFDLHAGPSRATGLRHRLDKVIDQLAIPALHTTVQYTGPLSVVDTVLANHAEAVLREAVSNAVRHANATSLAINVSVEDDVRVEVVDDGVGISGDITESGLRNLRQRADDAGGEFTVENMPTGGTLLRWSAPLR

In the case of `C[C@@H]1CC(C)(C)C[C@]2(C1)NC(=O)NC2=O` (racemic) [HC102A, 7,7,9-trimethyl-1,3-diazaspiro[4.5]decane-2,4-dione], the “effect on redox status of DosT heme” value at DosT (UV-visible spectra) was “no impact on the redox status”. For the same compound, in the experiment on Mtb Erdman, the inhibition at 40 µM was about 30%. The inhibition at 10 µM in the experiment with Mtb CDC1551 was about 50%.

`C[C@@H]1CC[C@H]2[C@@H](C)C(=O)O[C@@H]3O[C@]4(C)CC[C@@H]1[C@]32OO4` [HC101A, artemisinin, reference compound]: the “concentration at which artemisinin modulates DosT heme / inhibits DosT” value on DosT (DTN-reduced DosT) was found to be 50 µM. Moreover, in the experiment with Mtb Erdman, the inhibition at 40 µM is about 30%. In the experiment with Mtb CDC1551, the inhibition at 10 µM was about 50%.

For `O=C(Nc1cccc(O)c1)c1cccc(NC(=O)c2cccs2)c1` [HC103A, N-[3-[(3 hydroxyphenyl)carbamoyl]phenyl]thiophene-2-carboxamide], the “effect on redox status of DosT heme” value on DosT is reported as “no impact on the redox status”. Further, in the experiment with Mtb Erdman, the inhibition at 40 µM was about 30%. Moreover, in the experiment on Mtb CDC1551, the inhibition at 10 µM was about 50%.
